The source made the active and inactive calls.
Legend:
[1] = biological target: T1, Heat shock factor protein 1 (Mus musculus, UniProt P38532); test: inhibition of MG132-induced HSE-luciferase signal, confirmation, cell-based, NIH3T3, luminescence, dose retest (AID 2382); format: functional;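 also: NIH3T3 fibroblasts with HSF1-driven luciferase reporter stressed by proteasome inhibitor MG132; luminescence from HSF1-driven luciferase expression after 8 hours of MG132 stress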
T1 sequence (P38532 whole entry): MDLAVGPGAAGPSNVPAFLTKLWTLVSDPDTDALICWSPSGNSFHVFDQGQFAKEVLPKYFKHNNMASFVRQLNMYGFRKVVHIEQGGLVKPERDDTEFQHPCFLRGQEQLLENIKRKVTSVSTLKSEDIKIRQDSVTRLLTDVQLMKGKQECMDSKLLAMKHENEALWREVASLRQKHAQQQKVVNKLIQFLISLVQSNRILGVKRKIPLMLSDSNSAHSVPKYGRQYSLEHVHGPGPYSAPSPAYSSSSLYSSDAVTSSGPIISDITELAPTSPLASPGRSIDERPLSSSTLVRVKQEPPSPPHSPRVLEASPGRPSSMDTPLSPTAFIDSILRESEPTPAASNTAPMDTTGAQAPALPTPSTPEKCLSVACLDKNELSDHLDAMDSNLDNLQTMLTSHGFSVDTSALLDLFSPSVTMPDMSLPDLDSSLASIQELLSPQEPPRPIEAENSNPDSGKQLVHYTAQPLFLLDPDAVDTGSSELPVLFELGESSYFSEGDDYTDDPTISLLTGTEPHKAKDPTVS

[2] = biological target: T2, Protein RecA (Mycobacterium tuberculosis, UniProt P9WHJ3); test: Fluorescence Cell-Free Homogeneous Dose Retest to Identify Inhibitors of RecA-Intein Splicing Activity. [Related pubchem assays (depositor defined):AID2097, AID2223, AID489010, AID492950]; format: functional
T2 sequence (P9WHJ3 whole entry): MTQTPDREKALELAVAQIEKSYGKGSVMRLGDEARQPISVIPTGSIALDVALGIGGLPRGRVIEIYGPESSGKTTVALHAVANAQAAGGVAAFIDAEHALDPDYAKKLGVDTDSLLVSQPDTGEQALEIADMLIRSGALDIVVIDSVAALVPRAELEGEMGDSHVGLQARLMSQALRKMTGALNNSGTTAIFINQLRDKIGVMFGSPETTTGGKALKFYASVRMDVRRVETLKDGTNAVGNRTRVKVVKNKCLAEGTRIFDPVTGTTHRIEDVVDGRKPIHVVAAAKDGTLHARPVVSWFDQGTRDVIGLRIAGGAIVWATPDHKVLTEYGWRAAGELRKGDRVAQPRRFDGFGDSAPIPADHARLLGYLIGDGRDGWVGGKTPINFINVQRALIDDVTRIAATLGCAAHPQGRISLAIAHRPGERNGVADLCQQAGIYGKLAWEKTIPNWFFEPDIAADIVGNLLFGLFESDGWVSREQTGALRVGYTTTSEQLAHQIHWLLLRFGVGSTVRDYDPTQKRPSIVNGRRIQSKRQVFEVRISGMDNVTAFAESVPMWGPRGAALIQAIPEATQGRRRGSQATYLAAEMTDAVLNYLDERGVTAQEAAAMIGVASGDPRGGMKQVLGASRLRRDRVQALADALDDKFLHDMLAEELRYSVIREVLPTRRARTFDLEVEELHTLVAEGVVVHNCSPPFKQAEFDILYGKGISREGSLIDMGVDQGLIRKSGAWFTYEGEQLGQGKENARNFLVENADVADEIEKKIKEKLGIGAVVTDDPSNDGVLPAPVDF

[3] = biological target: T3, Replicative DNA helicase DnaB (Mycobacterium tuberculosis, UniProt P9WMR3); test: DnaB intein splicing inhibitors, dose response, biochemical, cell-free fluorescence (AID 449749); format: functional
T3 sequence (P9WMR3 whole entry): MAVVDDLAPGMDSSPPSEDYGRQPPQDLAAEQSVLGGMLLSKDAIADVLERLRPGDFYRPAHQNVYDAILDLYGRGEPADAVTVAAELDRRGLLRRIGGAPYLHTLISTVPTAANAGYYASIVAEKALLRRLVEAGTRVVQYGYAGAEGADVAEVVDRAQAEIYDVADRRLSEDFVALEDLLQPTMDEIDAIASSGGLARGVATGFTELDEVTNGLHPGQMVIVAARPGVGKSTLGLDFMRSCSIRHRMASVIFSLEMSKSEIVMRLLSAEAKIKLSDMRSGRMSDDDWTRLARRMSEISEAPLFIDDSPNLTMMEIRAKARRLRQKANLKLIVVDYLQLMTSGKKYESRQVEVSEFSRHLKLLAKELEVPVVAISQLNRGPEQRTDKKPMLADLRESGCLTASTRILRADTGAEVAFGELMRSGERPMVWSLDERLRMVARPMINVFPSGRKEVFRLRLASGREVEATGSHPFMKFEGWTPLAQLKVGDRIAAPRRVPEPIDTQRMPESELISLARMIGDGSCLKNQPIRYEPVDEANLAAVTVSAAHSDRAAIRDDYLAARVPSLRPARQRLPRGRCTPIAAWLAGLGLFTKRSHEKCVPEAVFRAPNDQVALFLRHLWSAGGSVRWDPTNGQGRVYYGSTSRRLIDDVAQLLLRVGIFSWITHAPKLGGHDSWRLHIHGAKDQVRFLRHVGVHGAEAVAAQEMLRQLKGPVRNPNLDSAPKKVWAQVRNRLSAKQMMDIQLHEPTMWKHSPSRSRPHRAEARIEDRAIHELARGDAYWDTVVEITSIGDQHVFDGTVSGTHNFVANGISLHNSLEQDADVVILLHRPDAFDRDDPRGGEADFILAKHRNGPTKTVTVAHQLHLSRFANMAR

[4] = biological target: T4, Cytochrome P450 1A2 (Homo sapiens, UniProt P05177);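 also: PubChem cytochrome P450 panel assay, CYP1A2 panel member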
T4 sequence (P05177 whole entry): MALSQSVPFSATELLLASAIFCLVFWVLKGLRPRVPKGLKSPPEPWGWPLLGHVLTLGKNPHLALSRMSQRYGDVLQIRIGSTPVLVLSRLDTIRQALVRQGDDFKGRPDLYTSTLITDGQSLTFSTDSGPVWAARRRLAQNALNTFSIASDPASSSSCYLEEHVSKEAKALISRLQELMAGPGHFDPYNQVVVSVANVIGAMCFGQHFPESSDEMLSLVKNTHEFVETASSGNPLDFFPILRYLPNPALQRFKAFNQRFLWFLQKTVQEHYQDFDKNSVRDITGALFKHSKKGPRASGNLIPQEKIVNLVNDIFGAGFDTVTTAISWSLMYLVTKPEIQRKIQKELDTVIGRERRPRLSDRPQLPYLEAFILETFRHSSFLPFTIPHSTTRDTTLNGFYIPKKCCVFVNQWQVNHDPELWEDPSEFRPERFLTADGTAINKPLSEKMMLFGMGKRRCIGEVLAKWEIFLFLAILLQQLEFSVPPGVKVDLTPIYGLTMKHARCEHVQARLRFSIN

[5] = biological target: Cytochrome P450 3A4 (Homo sapiens, UniProt P08684);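 also: CYP3A4 tested as one member of a cytochrome P450 panel screen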
[6] = test system: Streptococcus; test: Group A Streptococcus viability loss, dose response, counter-screen for streptokinase expression inhibitor project, luminescence, BacTiterGlo (AID 1915); format: functional, organism-based;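 also: potency for reduction of bacterial viability or growth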
[7] = test system: Streptococcus sp. 'group A'; test: growth inhibition of control SK(-) GAS strain, dose response, counter-screen for streptokinase expression inhibitor project, luminescence, kanamycin, BacTiterGlo, confirmation (AID 1900); format: functional, organism-based
[8] = biological target: Cytochrome P450 2C19 (Homo sapiens, UniProt P33261); test: Cytochrome panel assay with activity outcomes. Panel member name: p450-cyp2c19 Compounds with AC50 equal or less than 10 uM are considered active; format: functional; conditions: read-out: AC50
[9] = biological target: T5, Corticotropin-releasing factor receptor 2/Corticotropin-releasing factor-binding protein (Homo sapiens, UniProt P24387+Q13324); test: activators of CRF receptor 2 with binding protein – uHTS hits, confirmation (AID 602473); format: functional; conditions: read-out: EC50_Mean
T5 sequence (Q13324 whole entry): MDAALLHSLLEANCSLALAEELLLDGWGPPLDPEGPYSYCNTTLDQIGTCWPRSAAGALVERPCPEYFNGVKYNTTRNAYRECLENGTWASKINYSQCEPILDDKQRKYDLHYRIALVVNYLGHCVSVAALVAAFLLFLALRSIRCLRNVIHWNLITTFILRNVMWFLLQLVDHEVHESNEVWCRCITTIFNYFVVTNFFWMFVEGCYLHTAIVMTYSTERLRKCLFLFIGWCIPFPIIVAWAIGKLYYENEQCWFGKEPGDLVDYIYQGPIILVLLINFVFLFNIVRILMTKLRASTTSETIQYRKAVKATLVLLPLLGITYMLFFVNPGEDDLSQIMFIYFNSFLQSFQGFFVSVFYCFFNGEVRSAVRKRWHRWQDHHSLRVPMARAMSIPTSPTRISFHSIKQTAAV
T5 sequence (P24387 whole entry): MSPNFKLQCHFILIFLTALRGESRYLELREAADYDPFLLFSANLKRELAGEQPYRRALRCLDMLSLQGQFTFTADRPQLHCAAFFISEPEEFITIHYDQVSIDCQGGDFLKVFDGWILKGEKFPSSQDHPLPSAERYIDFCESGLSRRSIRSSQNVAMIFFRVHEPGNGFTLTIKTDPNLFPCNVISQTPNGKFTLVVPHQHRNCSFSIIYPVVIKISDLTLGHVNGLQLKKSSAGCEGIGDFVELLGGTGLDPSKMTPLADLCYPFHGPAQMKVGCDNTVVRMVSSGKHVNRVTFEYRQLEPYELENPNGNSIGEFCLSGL

Sequence of Cytochrome P450 2C19 (P33261 whole entry): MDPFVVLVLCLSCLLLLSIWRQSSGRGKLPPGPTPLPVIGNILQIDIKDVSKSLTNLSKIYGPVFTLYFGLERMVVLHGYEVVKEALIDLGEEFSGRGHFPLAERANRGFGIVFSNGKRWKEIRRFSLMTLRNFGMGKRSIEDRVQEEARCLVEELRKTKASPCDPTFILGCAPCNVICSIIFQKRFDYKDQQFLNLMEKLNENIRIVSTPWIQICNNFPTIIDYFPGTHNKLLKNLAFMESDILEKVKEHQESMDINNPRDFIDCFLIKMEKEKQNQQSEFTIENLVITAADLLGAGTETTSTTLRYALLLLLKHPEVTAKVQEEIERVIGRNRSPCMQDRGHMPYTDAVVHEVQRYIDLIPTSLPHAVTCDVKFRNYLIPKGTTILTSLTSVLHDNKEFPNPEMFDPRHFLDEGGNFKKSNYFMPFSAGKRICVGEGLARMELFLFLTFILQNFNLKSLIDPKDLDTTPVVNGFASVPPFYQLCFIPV
Sequence of Cytochrome P450 3A4 (P08684 whole entry): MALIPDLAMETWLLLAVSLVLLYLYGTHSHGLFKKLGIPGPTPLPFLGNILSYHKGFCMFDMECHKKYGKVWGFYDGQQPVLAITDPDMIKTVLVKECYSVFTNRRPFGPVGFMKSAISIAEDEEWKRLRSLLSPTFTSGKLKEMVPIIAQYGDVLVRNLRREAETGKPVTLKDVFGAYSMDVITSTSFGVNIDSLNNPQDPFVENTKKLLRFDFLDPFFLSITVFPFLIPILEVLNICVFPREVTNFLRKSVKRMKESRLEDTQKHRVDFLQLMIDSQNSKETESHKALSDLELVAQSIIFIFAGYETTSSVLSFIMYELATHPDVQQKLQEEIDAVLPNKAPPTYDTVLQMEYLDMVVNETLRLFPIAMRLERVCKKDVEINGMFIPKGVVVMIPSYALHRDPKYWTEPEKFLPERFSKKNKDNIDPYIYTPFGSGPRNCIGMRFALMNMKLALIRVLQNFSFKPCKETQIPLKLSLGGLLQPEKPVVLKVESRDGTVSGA

## CCN(C(=O)COC(=O)/C=C/c1ccccc1)C1CCCCC1
[1]
  EC50: > 195 µM (not active)

## O=C1CC(CC(=O)N/N=C/c2ccccc2[N+](=O)[O-])=NN1
[2]
  EC50: 1.85 µM (active)
[3]
  AC50: 2.19 µM (active)

## O=C(CN(C(=O)CSc1nc2ccccc2o1)c1cccc(F)c1)NC1CCCCC1
[4]
  AC50: 20 µM (inconclusive)

## Cn1c(=O)n(C)c2cc(NS(C)(=O)=O)ccc21
[1]
  EC50: > 195 µM (not active)

## COc1cccc(/C=C(\C#N)c2nc3ccccc3[nH]2)c1OCC(=O)O
[1]
  EC50: > 195 µM (not active)

## CNCC[C@@H](Oc1ccccc1C)c1ccccc1 [ATOMOXETINE]
[4]
  AC50: 15.8 µM (inconclusive)
[5]
  AC50: 12.6 µM (inconclusive)

## CC1=NN(c2ccccc2)C(=O)/C1=C\c1cn(CCC#N)nc1-c1ccc(Cl)cc1
[2]
  EC50: 2.77 µM (active)
[3]
  AC50: 3.78 µM (active)

## CC(C(=O)NC1CC(C)(C)NC(C)(C)C1)c1ccc([N+](=O)[O-])cc1 (centres undefined)
[1]
  EC50: > 195 µM (not active)

## Cc1ccc(S(=O)(=O)N2CCN(C(=O)c3ccccc3Cc3ccccc3)CC2)c(C)c1
[2]
  EC50: 208 µM (active)
[3]
  AC50: 2.54 µM (active)

## Cc1nn(C)c(Cl)c1CN1CCC(n2nccc2NC(=O)C2CCCC2)CC1
[1]
  EC50: > 195 µM (not active)

## CCCCn1c(N)c(N(CC(C)C)C(=O)c2cccc(S(=O)(=O)N3CCCCC3)c2)c(=O)[nH]c1=O
[1]
  EC50: > 195 µM (not active)

## Cc1ccc(-n2nc(C)c3c2OC(N)=C(C#N)C3c2ccccc2F)cc1 (centres undefined)
[2]
  EC50: 24 µM (inconclusive)
[3]
  AC50: 5.37 µM (active)

## CN(CC(=O)Nc1cccc(F)c1)CC(=O)Nc1cccc(S(N)(=O)=O)c1
[1]
  EC50: > 195 µM (not active)

## COc1ccccc1CN1CC(C(=O)NCCN2CCNC2=O)CCC1=O (centres undefined)
[1]
  EC50: 9.48 µM (active)

## Nc1ccc(C#Cc2ccc3oc4ccccc4c(=O)c3c2)cc1
[6]
  EC50: 2.37 µM (active)
[7]
  EC50: 2.5 µM (active)

## Cc1n[nH]c2c1C(c1ccc3c(c1)OCO3)C(C#N)=C(N)O2 (centres undefined)
[2]
  EC50: 6.16 µM (active)
[3]
  AC50: 15.6 µM (active)

## COCCN(C(S)=Nc1c(C)cccc1C)C(C)c1cccnc1 (centres undefined)
[1]
  EC50: > 195 µM (not active)

## COc1ccc(CC(NC(C)=O)C(=O)NC2CCN(C(=O)c3ccc(OC)c(OC)c3)CC2)cc1OC (centres undefined)
[1]
  EC50: > 195 µM (not active)

## CN1C(=O)c2ccccc2Sc2ccc(C(=O)N3CCC4(CC3)OCCO4)cc21
[1]
  EC50: > 195 µM (not active)
[5]
  AC50: 20 µM (inconclusive)

## Cc1ccc(-c2csc(NC(=O)CSC3=NCCS3)n2)cc1
[2]
  EC50: 3.83 µM (active)
[3]
  AC50: 14.6 µM (active)

## O=S(=O)(O)c1ccc2c(/N=N\c3c(O)ccc4ccccc34)cccc2c1
[4]
  AC50: 3.16 µM (inconclusive)
[8]
  AC50: 0.631 µM (inconclusive)

## COC(=O)c1c(NC(=O)C(C)(C)C)sc2c1C(C(=O)OC)CC2 (centres undefined)
[4]
  AC50: 0.794 µM (inconclusive)
[8]
  AC50: 14.1 µM (inconclusive)

## NC1=NN(c2cccc(C(=O)O)c2)C(=O)C1
[2]
  EC50: 23.7 µM (inconclusive)
[3]
  AC50: 20 µM (active)

## COCCn1c(=O)c(-c2ccc(Cl)cc2)nc2cnc(Nc3ccccc3)nc21
[4]
  AC50: 20 µM (inconclusive)

## FC(F)Oc1ccc(NC(S)=NNc2ccnc3cc(Cl)ccc23)cc1
[1]
  EC50: > 195 µM (not active)

## C[C@]12c3[nH]c4ccccc4c3CCN1C(=O)C(CC(=O)NCC13C[C@H]4C[C@@H](C1)C[C@@H](C3)C4)C[C@@H]2C(=O)N1CCOCC1 (some centres undefined)
[9]
  EC50: > 53 µM (inactive)

## O=C(Nc1cccc(S(=O)(=O)N2CCOCC2)c1)c1ccccn1
[1]
  EC50: > 195 µM (not active)

## CCN(CC)S(=O)(=O)c1ccc(C)c(NC(=O)CNCc2ccccc2OC)c1
[1]
  EC50: > 195 µM (not active)

## CC(C)N=C(S)NC1(C)CCS(=O)(=O)C1 (centres undefined)
[2]
  EC50: > 380 µM (inactive)
[3]
  AC50: > 380 µM (inactive)

## COc1cccc(-c2csc(N3CCN(CC(=O)NNC(=O)c4ccc(Cl)cc4)CC3)n2)c1
[4]
  AC50: 8.91 µM (inconclusive)

## O=C(C1CCCC1)N1CCCC(Nc2ccc(F)cc2)C1 (centres undefined)
[9]
  EC50: > 53 µM (inactive)

— ChEMBL document CHEMBL1201862, “PubChem BioAssay data set” (2004)
